According to US20250304537A1 (Repare Therapeutics Inc., priority 2022, published 2025):
pIC50: −log10 of the molar value. Read-outs that look alike come from different tables or passages of the source.

System: PKMYT1 (CDK1 pThr14) in FUOV1 cells
Assay: PKMYT1 cell-based activity assay, CDK1 pThr14 AlphaLISA in FUOV1 cells
Settings: read-out: FUOV-1 CDK1 pThr14 IC50
Summary of the method: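 IC50 was derived from AlphaLISA signal (excitation 680 nm, emission 615 nm) for phospho-Thr14 CDK1 in lysates. The detection antibodies were rabbit anti-pThr14 and mouse anti-total CDK1, each at 5 nM. FUOV1 ovarian cells were exposed to compound for 2 hours before lysis.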

SMILES | pIC50 (2 h, 2 hours with compound) | pIC50 (2 h, 2 h compound incubation) | other results
Cc1ccc(F)c(Nc2ncccc2-c2cc(C(N)=O)c(N)c(-c3c(C)ccc4[nH]ncc34)n2)n1 [Compound 827, 5-amino-2′-((3-fluoro-6-methylpyridin-2-yl)amino)-6-(5-methyl-1H-indazol-4-yl)-[2,3′-bipyridine]-4-carboxamide] | 7.92 |  | 
Cc1ccc2[nH]ncc2c1-c1nc(-c2cc(F)cnc2N[C@@H]2C[C@@H]3CC[C@H]2O3)nc(C(N)=O)c1N [Compound 837] |  |  | pIC50 (2 hours with compound): 7.66
[2H]C([2H])([2H])c1ccc2[nH]ncc2c1-c1nc(-c2ccc(F)nc2Nc2nc(C)ncc2F)nc(C(N)=O)c1N [Compound 972] | 7.85 |  | 
Cc1ccc(F)c(Nc2ncccc2-c2nc(C(N)=O)c(N)c(-c3c(C)c(F)cc4[nH]ncc34)n2)n1 [Compound 749] |  | 8.22 | 
COc1c(C(N)=O)nc(-c2cccnc2Nc2nc(F)ccc2F)nc1-c1c(C)ccc2[nH]ncc12 [Compound 963, 2-(2-((3,6-difluoropyridin-2-yl)amino)pyridin-3-yl)-5-methoxy-6-(5-methyl-1H-indazol-4-yl)pyrimidine-4-carboxamide] | < 5.00 |  | 
Cc1c(F)cc2[nH]ncc2c1-c1nc(-c2ccc(F)cc2Nc2ncccc2C#N)nc(C(N)=O)c1N [Compound 865] | 8.00 |  | 
Cc1ccc2[nH]ncc2c1-c1nc(-c2cc(F)cnc2NCC(C)(C)C#N)nc(C(N)=O)c1N [Compound 702] |  | 7.85 | 
Cc1ccc2[nH]ncc2c1-c1nc(-c2ccccc2Nc2ncc(F)cn2)nc(C(N)=O)c1N [Compound 494] |  | 6.84 | 
COc1cc(-c2nc(C(N)=O)c(N)c(-c3c(C)ccc4[nH]ncc34)n2)c(Nc2ncccc2F)cn1 [Compound 976, 5-amino-2-(5-((3-fluoropyridin-2-yl)amino)-2-methoxypyridin-4-yl)-6-(5-methyl-1H-indazol-4-yl)pyrimidine-4-carboxamide] | 7.66 |  | 
Cc1ccc2[nH]ncc2c1-c1nc(-c2ccc(Cl)nc2N[C@H]2C[C@@](C)(O)C2)nc(C(N)=O)c1N [Compound 772] |  | 6.95 | 
Cc1ccc2[nH]ncc2c1-c1nc(-c2ccc(F)cc2Nc2nccc(C(F)(F)F)n2)nc(C(N)=O)c1N [Compound 572] |  | 6.12 | 
Cc1ccc2[nH]ncc2c1-c1nc(-c2cc(F)cnc2NCC(F)F)nc(C(N)=O)c1N [Compound 504] |  | 7.51 | 
Cc1cccnc1Nc1nc(Cl)ccc1-c1nc(C(N)=O)c(N)c(-c2c(C)ccc3[nH]ncc23)n1 [Compound 736, 5-amino-2-(6-chloro-2-((3-methylpyridin-2-yl)amino)pyridin-3-yl)-6-(5-methyl-1H-indazol-4-yl)pyrimidine-4-carboxamide] |  | 8.22 | 
Cc1ccc2[nH]ncc2c1-c1nc(-c2cccnc2Nc2ccncc2)nc(C(N)=O)c1N [Compound 562] |  | 7.62 | 
Cc1ccc2[nH]ncc2c1-c1nc(-c2ccc(C(F)F)nc2Nc2ncccn2)nc(C(N)=O)c1N [Compound 928] | 6.84 |  | 
Cc1ccc2[nH]ncc2c1-c1nc(-c2ccc(F)cc2NC(=O)C2(C)CCCO2)nc(C(N)=O)c1N (stereo not shown) [Compound 528] |  | 6.93 | 
[2H]C([2H])([2H])c1ccc2[nH]ncc2c1-c1nc(-c2ccc(Cl)nc2Nc2nccnc2F)nc(C(N)=O)c1N [Compound 966] | 7.96 |  | 
Cc1ncc(F)c(Nc2nc(F)ccc2-c2nc(C(N)=O)c(N)c(-c3c(C)ccc4[nH]ncc34)n2)n1 [Compound 954, 5-amino-2-(6-fluoro-2-((5-fluoro-2-methylpyrimidin-4-yl)amino)pyridin-3-yl)-6-(5-methyl-1H-indazol-4-yl)pyrimidine-4-carboxamide] | 7.96 |  | 
Cc1ccc2[nH]ncc2c1-c1nc(-c2cc(F)ccc2Nc2cccnc2)nc(C(N)=O)c1N [Compound 519, 5-amino-2-(5-fluoro-2-(pyridin-3-ylamino)phenyl)-6-(5-methyl-1H-indazol-4-yl)pyrimidine-4-carboxamide] |  | 7.23 | 
Cc1ccc2[nH]ncc2c1-c1nc(-c2cccnc2NC2(C)CCOC2)nc(C(N)=O)c1N (stereo not shown) [Compound 591] |  | 7.66 | 
NC(=O)c1nc(-c2cccnc2NC2CC2)nc(-c2c(Cl)ccc3[nH]ncc23)c1N [Compound 919] | 7.04 |  | 
Cc1ccc2[nH]ncc2c1-c1nc(-c2cc(F)ccc2NC(=O)C2(C)CCOCC2)nc(C(N)=O)c1N [Compound 505] |  | 7.44 | 
Cc1ccc2[nH]ncc2c1-c1nc(-c2ccc(C(F)F)nc2Nc2ncccc2F)nc(C(N)=O)c1N [Compound 931] | 7.85 |  | 
Cc1ccc2[nH]ncc2c1-c1nc(-c2cc(F)cnc2N[C@H](C)C(F)(F)F)nc(C(N)=O)c1N [Compound 889] | 7.25 |  | 
Cc1c(F)cc2[nH]ncc2c1-c1nc(-c2cc(F)c(F)cc2NC(=O)C2(C(F)(F)F)CC2)nc(C(N)=O)c1N [Compound 509] |  | 6.55 | 
Cc1ccc2[nH]ncc2c1-c1nc(-c2cc(F)cnc2NC2CCN(CC(F)F)CC2)nc(C(N)=O)c1N [Compound 876] | 6.13 |  | 
Cc1ccc2[nH]ncc2c1-c1nc(-c2cccnc2NC[C@H]2CCOC2)nc(C(N)=O)c1N [Compound 594] |  | 7.44 | 

Second part, led by results:

pIC50 (2 h, 2 hours with compound) | pIC50 (2 h, 2 h compound incubation) | SMILES | other results
6.98 |  | Cc1cc(F)c2[nH]ncc2c1-c1nc(-c2cc(F)cnc2N[C@H]2CCOC[C@H]2F)nc(C(N)=O)c1N [Compound 887] | 
7.32 |  | Cc1ccc2[nH]ncc2c1-c1nc(-c2cc(F)cnc2N[C@H]2CC[C@@H](O)C2)nc(C(N)=O)c1N [Compound 797] | 
 | 6.75 | Cc1ccc2[nH]ncc2c1-c1nc(-c2cccnc2NC[C@@H]2CCO2)nc(C(N)=O)c1N [Compound 650] | 
 | 6.64 | Cc1ccc2[nH]ncc2c1-c1nc(-c2cccc(F)c2Nc2ncccn2)nc(C(N)=O)c1N [Compound 769] | 
7.64 |  | Cc1ccc2[nH]ncc2c1-c1nc(-c2ccc(F)nc2NC2CS(=O)(=O)C2)nc(C(N)=O)c1N [Compound 819] | 
 | 7.60 | Cc1ccc2[nH]ncc2c1-c1nc(-c2ccc(F)cc2Nc2ncccn2)nc(C(N)=O)c1N [Compound 511] | 
7.02 |  | Cc1ccc2[nH]ncc2c1-c1nc(-c2ccc(F)cc2N[C@H]2C[C@](C)(O)C2)nc(C(N)=O)c1N [Compound 861] | 
 | 6.70 | Cc1ccc2[nH]ncc2c1-c1nc(-c2cc(F)cnc2N[C@H]2CC[C@H](C(C)(C)O)CC2)nc(C(N)=O)c1N [Compound 757] | 
7.33 |  | Cc1ccc2[nH]ncc2c1-c1nc(-c2cccnc2N[C@H]2C[C@@](C)(O)C2)nc(C(N)=O)c1N [Compound 918] | 
 | 7.82 | Cc1ccc2[nH]ncc2c1-c1nc(-c2cccnc2NC2CCCOC2)nc(C(N)=O)c1N (stereo not shown) [Compound 582] | 
 | 6.33 | Cc1ccc2[nH]ncc2c1-c1nc(-c2cccnc2NCC2COCCO2)nc(C(N)=O)c1N (stereo not shown) [Compound 642] | 
7.49 |  | N#Cc1ccc(-c2nc(C(N)=O)c(N)c(-c3c(Cl)ccc4[nH]ncc34)n2)c(Nc2ncccn2)c1 [Compound 958] | 
 | 7.80 | Cc1ccc2[nH]ncc2c1-c1nc(-c2ccc(F)cc2Nc2ccncn2)nc(C(N)=O)c1N [Compound 513] | 
 | 7.15 | Cc1ccnc(Nc2ncccc2-c2nc(C(N)=O)c(N)c(-c3c(C)ccc4[nH]ncc34)n2)n1 [Compound 565, 5-amino-6-(5-methyl-1H-indazol-4-yl)-2-(2-((4-methylpyrimidin-2-yl)amino)pyridin-3-yl)pyrimidine-4-carboxamide] | 
 | 6.42 | Cc1ccnc(Nc2ncccc2-c2nc(C(N)=O)c(N)c(-c3c(C)ccc4[nH]ncc34)n2)c1C [Compound 738] | 
8.15 |  | Cc1c(F)cc2[nH]ncc2c1-c1nc(-c2ccc(F)nc2Nc2nc(C(F)F)ccc2F)nc(C(N)=O)c1N [Compound 858] | 

pIC50 (2 h, 2 hours with compound) | pIC50 (2 h, 2 h compound incubation) | SMILES | other results
8.15 |  | Cc1cc(F)c2[nH]ncc2c1-c1nc(-c2ccc(F)nc2Nc2nc(F)ccc2F)nc(C(N)=O)c1N [Compound 879] | 
6.15 |  | [2H]C([2H])([2H])c1ccc2[nH]ncc2c1-c1nc(-c2cccnc2NC23CC(C(N)=O)(C2)C3)nc(C(N)=O)c1N [Compound 962, 5-amino-2-(2-((3-carbamoylbicyclo[1.1.1]pentan-1-yl)amino)pyridin-3-yl)-6-(5-(methyl-d3)-1H-indazol-4-yl)pyrimidine-4-carboxamide] | 
 | 6.57 | C[C@]1(O)C[C@@H](Nc2nc(Cl)ccc2-c2nc(C(N)=O)c(N)c(-c3c(Cl)ccc4[nH]ncc34)n2)C1 [Compound 790] | 
7.80 |  | Cc1ccc2[nH]ncc2c1-c1nc(-c2ccncc2Nc2ncccn2)nc(C(N)=O)c1N [Compound 951] | 
 | 6.32 | Cc1ccc(-c2nc(C(N)=O)c(N)c(-c3c(C)ccc4[nH]ncc34)n2)c(Nc2cncc(Cl)n2)n1 [Compound 725] | 
7.43 |  | Cc1ccc(Cl)nc1Nc1nc(F)ccc1-c1nc(C(N)=O)c(N)c(-c2c(C)cc(F)c3[nH]ncc23)n1 [Compound 877] | 
 | 7.14 | Cc1ccc2[nH]ncc2c1-c1nc(-c2cccnc2NC2CCOCC2(C)C)nc(C(N)=O)c1N (stereo not shown) [Compound 596] | 
 | 6.11 | Cc1ccc2[nH]ncc2c1-c1nc(-c2cc(F)cnc2NC2CCC(F)(F)CC2)nc(C(N)=O)c1N [Compound 731] | 
 | 6.86 | NC(=O)c1nc(-c2cc(F)ccc2Nc2ncc(F)cn2)nc(-c2c(Cl)ccc3[nH]ncc23)c1N [Compound 554] | 
7.06 |  | Cc1c(F)cc2[nH]ncc2c1-c1nc(-c2ccc(F)nc2Nc2nccnc2C(F)F)nc(C(N)=O)c1N [Compound 854] | 
 | < 5.00 | Cc1ccc2[nH]ncc2c1-c1nc(-c2cccnc2NCC2COC2)nc(C(N)=O)c1N [Compound 676] | 
8.30 |  | [2H]C([2H])([2H])c1ccc2[nH]ncc2c1-c1nc(-c2ccc(F)nc2Nc2ncccc2F)nc(C(N)=O)c1N [Compound 930] | 
 | 7.48 | Cc1ccc2[nH]ncc2c1-c1nc(-c2cc(F)cnc2NCC2(C#N)CC2)nc(C(N)=O)c1N [Compound 705] | 
7.55 |  | Cc1ccc2[nH]ncc2c1-c1nc(-c2ccc(Cl)nc2Nc2ncccc2C(F)F)nc(C(N)=O)c1N [Compound 944] | 
 | 7.80 | Cc1ccc2[nH]ncc2c1-c1nc(-c2cc(F)cnc2N[C@H]2C[C@H](O)C2)nc(C(N)=O)c1N [Compound 690] | 
